Measurements as given in publication PMC5908784, “Extracellular loops 2 and 3 of the calcitonin receptor selectively modify agonist binding and efficacy” (Biochemical Pharmacology, 2018).
Residue numbers refer to the chain shown, from its start. Where no end group is shown, it is not given here.

Tests used:
Assay in all cases: Homologous whole cell competition binding
Settings in all cases: homologous competition of 125I-sCT(8-32), whole cells, mean ± S.E.M., SEM
hCTR F285A = biological target: T1, hCTR F285A (Homo sapiens, UniProt P30988, F285A)
T1 construct: expressed in transfected cells
T1 sequence (P30988 25-474 F285A): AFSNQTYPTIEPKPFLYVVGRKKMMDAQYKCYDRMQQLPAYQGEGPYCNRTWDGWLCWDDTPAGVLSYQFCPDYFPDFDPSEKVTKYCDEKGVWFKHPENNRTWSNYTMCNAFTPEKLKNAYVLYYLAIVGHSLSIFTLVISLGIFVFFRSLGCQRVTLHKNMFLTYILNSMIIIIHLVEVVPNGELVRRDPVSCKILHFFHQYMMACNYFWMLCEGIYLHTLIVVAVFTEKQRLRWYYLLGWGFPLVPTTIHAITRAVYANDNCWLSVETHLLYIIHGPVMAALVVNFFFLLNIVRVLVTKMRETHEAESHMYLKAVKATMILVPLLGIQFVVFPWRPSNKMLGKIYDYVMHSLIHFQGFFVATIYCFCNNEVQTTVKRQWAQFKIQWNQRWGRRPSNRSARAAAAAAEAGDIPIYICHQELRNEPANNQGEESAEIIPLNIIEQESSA
Description: (§1) Homologous radioligand competition was performed on 2.5 × 10^4 cells/well seeded into 96-well trays and cultured overnight. Cells were incubated overnight at 4 °C with two concentrations of ^125I-sCT(8-32) (between 25 and 100 pM; specific activity, 2000 Ci/mmol^9) and serial dilutions of non-iodinated sCT(8-32). Non-bound ligand was removed and bound ligand activity was measured using a γ counter (Wallac Wizard 1470 Gamma Counter, Perkin Elmer, 80% counter efficiency). Values were normalized against non-specific binding (0%) defined by the presence of 1 μM of unlabelled sCT(8-32), and total ligand bound in absence of competing sCT(8-32) (100%).
(§2) IC50 and Bmax values were estimated from competitive inhibition of ^125I-sCT(8-32) binding using a 3-parameter logistic equation (log(inhibitor versus response)) in Prism (v7; Graphpad). Data were corrected for radioligand occupancy using the Cheng-Prusoff equation in Prism; as such data are reported as pKi. Emax and EC50 were estimated from concentration-response curves using with a 3-parameter logistic equation in Prism (v7). These values are a composite of functional affinity, efficacy and stimulus response coupling. The Black and Leff operational model of agonism was applied to separate effects on pathway-specific efficacy (τ) from those that modify ligand functional affinity (pKA). Derived τ values were normalized to experimentally determined levels of cell surface expression to provide a measure of efficacy (τc) that is independent of affinity and altered cell surface receptor expression. pKi, pKA and log τc values for mutant receptors were statistically compared to those of the WT receptor using a one-way analysis of variance (ANOVA) and Dunnett’s post-test. Significance was accepted at P < 0.05.

hCTR T295A = biological target: T2, hCTR T295A (Homo sapiens, UniProt P30988, T295A)
T2 construct: c-Myc (N); expressed in transfected cells
T2 sequence (P30988 25-474 T295A): T1 sequence (P30988 25-474 F285A) with A261F, T271A
Description: as §1, §2

hCTR W361A = biological target: T3, hCTR W361A (Homo sapiens, UniProt P30988, W361A)
T3 construct: expressed in transfected cells
T3 sequence (P30988 25-474 W361A): T1 sequence (P30988 25-474 F285A) with A261F, W337A
Description: as §1, §2

hCTR Y284A = biological target: T4, hCTR Y284A (Homo sapiens, UniProt P30988, Y284A)
T4 construct: expressed in transfected cells
T4 sequence (P30988 25-474 Y284A): T1 sequence (P30988 25-474 F285A) with Y260A, A261F
Description: as §1, §2

Work on “VLGKLSQELHKLQTYPRTNTGSGTP-NH2 [sCT(8-32)]” yielded a Ki (hCTR F285A) of 0.102 nM, a Ki (hCTR T295A) of 0.0501 nM and a Ki (hCTR W361A) of 0.282 nM. It also gave a Ki (hCTR Y284A) of 0.141 nM.
